# Measured values taken from patent US10039747B2, “Tetrahydrocyclopentapyrrole derivatives and a method for preparing the same” (Daewoong Pharmaceutical Co., Ltd., priority 2013, dated 2018).
# Molecular target: T1, H+/K+-ATPase (Sus scrofa, UniProt P19156)
# T1 construct: reaction buffer solution (60 mmol/l Tris-HCl buffer solution, pH 7.4) containing hog gastric vesicle; from tissue; host or cells: hog stomach (gastric vesicles, by centrifugation after Rabon et al. 1988)
# Test: Inhibition of proton pump (H+/K+-ATPase) activity in hog gastric vesicles
# Format: biochemical
# Details: K+ specific H+/K+-ATPase activity, pH 7.4, 37° C. for 40 minutes, malachite green
# Description: 1) Preparation of Gastric Vesicles
# Gastric vesicles were prepared from hog stomach by centrifugation (Edd C. Rabon et al., Preparation of Gastric H^+,K^+-ATPase, Methods in enzymology, vol. 157 Academic Press Inc., (1988), pp. 649-654). The protein contents of the prepared gastric vesicles were quantified with a Bicinchoninic Acid (BCA) kit.
# 2) Measurement of Effect of Inhibiting Proton Pump (H^+/K^+-ATPase) Activity
# The effect of inhibiting proton pump activity by the compound of the present invention was measured in a 96-well plate. In this experiment, K^+ specific H^+/K^+-ATPase activity was calculated based on the difference between H^+/K^+-ATPase activity in the presence of K^+ ions and H^+/K^+-ATPase activity in the absence of K^+ ions. In the 96-well plate, to negative and positive control groups, 0.5% dimethylsulfoxide (DMSO) in buffer was added, and to the test groups, the compound of the present invention was added. All the analyses were conducted at room temperature with the reaction volume of 100 μl. To a reaction buffer solution (60 mmol/l Tris-HCl buffer solution, pH 7.4) containing hog gastric vesicle, DMSO and each concentration of compound were added, and then, 10 μl of a 10 mmol/l adenosine triphosphate tris buffer solution (60 mmol/l Tris-HCl buffer solution, pH 7.4) was added to initiate an enzyme reaction. The enzyme reaction was conducted at 37° C. for 40 minutes, 50 μl of a malachite green solution (0.12% malachite green solution, 5.8% ammonium molybdate and 11% tween 20 were mixed at a ratio of 100:67:2 in 6.2 N sulfuric acid) was added to stop the reaction, and 50 μl of 15.1% sodium citrate was added. During the reaction, the amount of monophosphate (Pi) was measured at 570 nm using micro plate reader (FLUOstar Omega, BMG Company). Inhibition rate (%) was measured from the activity values of the control groups and the activity values of various concentrations of the test compound, and IC50 of the test compound was calculated from each % inhibition value of the compound using Logistic 4-parameter function of Sigmaplot 8.0 program.
# T1 sequence (P19156 2-1034 limits assumed): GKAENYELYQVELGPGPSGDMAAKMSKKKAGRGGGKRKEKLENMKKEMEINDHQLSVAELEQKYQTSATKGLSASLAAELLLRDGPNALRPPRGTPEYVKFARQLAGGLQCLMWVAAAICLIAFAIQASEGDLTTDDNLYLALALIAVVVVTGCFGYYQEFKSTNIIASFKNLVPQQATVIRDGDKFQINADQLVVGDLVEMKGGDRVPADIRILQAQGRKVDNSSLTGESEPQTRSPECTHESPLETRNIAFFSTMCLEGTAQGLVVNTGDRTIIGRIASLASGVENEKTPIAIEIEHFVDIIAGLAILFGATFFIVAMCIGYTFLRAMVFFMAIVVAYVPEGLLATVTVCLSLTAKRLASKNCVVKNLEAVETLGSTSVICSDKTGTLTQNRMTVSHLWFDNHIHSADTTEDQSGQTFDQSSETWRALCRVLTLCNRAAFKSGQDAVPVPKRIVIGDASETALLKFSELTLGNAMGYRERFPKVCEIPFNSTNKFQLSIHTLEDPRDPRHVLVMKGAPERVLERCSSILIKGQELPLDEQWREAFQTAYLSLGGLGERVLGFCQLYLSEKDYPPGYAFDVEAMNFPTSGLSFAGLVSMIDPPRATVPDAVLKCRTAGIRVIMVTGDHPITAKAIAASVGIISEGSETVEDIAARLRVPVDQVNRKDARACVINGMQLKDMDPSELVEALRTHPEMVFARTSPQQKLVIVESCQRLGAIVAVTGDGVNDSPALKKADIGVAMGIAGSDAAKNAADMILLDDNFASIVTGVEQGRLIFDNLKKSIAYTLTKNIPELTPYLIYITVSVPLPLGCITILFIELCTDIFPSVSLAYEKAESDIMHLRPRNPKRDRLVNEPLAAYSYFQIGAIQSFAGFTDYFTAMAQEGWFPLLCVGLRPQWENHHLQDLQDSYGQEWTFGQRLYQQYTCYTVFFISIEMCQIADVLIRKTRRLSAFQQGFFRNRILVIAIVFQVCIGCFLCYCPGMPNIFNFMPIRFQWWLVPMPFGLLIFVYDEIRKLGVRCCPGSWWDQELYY
# T1 sequence (P18434 whole entry partner): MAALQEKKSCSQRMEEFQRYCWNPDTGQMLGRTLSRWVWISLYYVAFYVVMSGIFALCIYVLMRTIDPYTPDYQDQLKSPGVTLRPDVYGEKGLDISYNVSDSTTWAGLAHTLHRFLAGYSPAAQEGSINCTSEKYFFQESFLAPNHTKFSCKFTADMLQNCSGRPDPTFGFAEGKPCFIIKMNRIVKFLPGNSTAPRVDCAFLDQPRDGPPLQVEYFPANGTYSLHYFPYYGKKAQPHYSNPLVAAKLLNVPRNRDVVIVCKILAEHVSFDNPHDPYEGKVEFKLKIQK
row,Compound,IC50 [µM]
1,CNC1CCc2c1cn(S(=O)(=O)c1cccc(Cl)c1)c2-c1ccccc1N1CCOCC1 (stereo not shown) [Example 7],40
2,"CNC1CCc2c1cn(S(=O)(=O)c1cccc(Cl)c1)c2-c1cccc(C(F)(F)F)c1 (stereo not shown) [Example 10, 2-((3-chlorophenyl)sulfonyl)-N-methyl-1-(3-(trifluoromethyl)phenyl)-2,4,5,6-tetrahydrocyclopenta[c]pyrrol-4-amine]",0.97
3,"CNC1CCc2c1cn(S(=O)(=O)c1cccc(Cl)c1)c2-c1ccc(C(=O)OC)cc1 (stereo not shown) [Example 15, methyl 4-(2-((3-chlorophenyl)sulfonyl)-4-(methylamino)-2,4,5,6-tetrahydrocyclopenta[c]pyrrol-1-yl)benzoate]",2.9
4,"CNC1CCc2c1cn(S(=O)(=O)c1cccc(Cl)c1)c2-c1ccc(C(F)(F)F)cc1 (stereo not shown) [Example 16, 2-((3-chlorophenyl)sulfonyl)-N-methyl-1-(4-(trifluoromethyl)phenyl)-2,4,5,6-tetrahydrocyclopenta[c]pyrrol-4-amine]",0.97
5,"CNC1CCc2c1cn(S(=O)(=O)c1cccc(Cl)c1)c2-c1ccc(OC(F)(F)F)cc1 (stereo not shown) [Example 17, 2-((3-chlorophenyl)sulfonyl)-N-methyl-1-(4-(trifluoromethoxy)phenyl)-2,4,5,6-tetrahydrocyclopenta[c]pyrrol-4-amine]",1.39
6,"CNC1CCc2c1cn(S(=O)(=O)c1cccc(Cl)c1)c2-c1ccc(C)cc1F (stereo not shown) [Example 18, 2-((3-chlorophenyl)sulfonyl)-1-(2-fluoro-4-methylphenyl)-N-methyl-2,4,5,6-tetrahydrocyclopenta[c]pyrrol-4-amine]",0.43
7,"CNC1CCc2c1cn(S(=O)(=O)c1cccc(Cl)c1)c2-c1ccc(F)cc1F (stereo not shown) [Example 19, 2-((3-chlorophenyl)sulfonyl)-1-(2,4-difluorophenyl)-N-methyl-2,4,5,6-tetrahydrocyclopenta[c]pyrrol-4-amine]",0.28
8,"CNC1CCc2c1cn(S(=O)(=O)c1cccc(Cl)c1)c2-c1ccc(Cl)cc1F (stereo not shown) [Example 20, 1-(4-chloro-2-fluorophenyl)-2-((3-chlorophenyl)sulfonyl)-N-methyl-2,4,5,6-tetrahydrocyclopenta[c]pyrrol-4-amine]",0.54
9,"CNC1CCc2c1cn(S(=O)(=O)c1cccc(Cl)c1)c2-c1ccc(Cl)cc1Cl (stereo not shown) [Example 21, 2-((3-chlorophenyl)sulfonyl)-1-(2,4-dichlorophenyl)-N-methyl-2,4,5,6-tetrahydrocyclopenta[c]pyrrol-4-amine]",0.9
10,"CNC1CCc2c1cn(S(=O)(=O)c1cccc(Cl)c1)c2-c1cc(Cl)ccc1F (stereo not shown) [Example 22, 1-(5-chloro-2-fluorophenyl)-2-((3-chlorophenyl)sulfonyl)-N-methyl-2,4,5,6-tetrahydrocyclopenta[c]pyrrol-4-amine]",0.45
11,"CNC1CCc2c1cn(S(=O)(=O)c1cccc(Cl)c1)c2-c1cc(Cl)ccc1Cl (stereo not shown) [Example 23, 2-((3-chlorophenyl)sulfonyl)-1-(2,5-dichlorophenyl)-N-methyl-2,4,5,6-tetrahydrocyclopenta[c]pyrrol-4-amine]",0.41
12,"CNC1CCc2c1cn(S(=O)(=O)c1cccc(Cl)c1)c2-c1cc(Cl)cc(Cl)c1 (stereo not shown) [Example 25, 2-((3-chlorophenyl)sulfonyl)-1-(3,5-dichlorophenyl)-N-methyl-2,4,5,6-tetrahydrocyclopenta[c]pyrrol-4-amine]",0.79
13,"CNC1CCc2c1cn(S(=O)(=O)c1cccc(Cl)c1)c2-c1cc(Cl)c(C)cc1F (stereo not shown) [Example 26, 1-(5-chloro-2-fluoro-4-methylphenyl)-2-((3-chlorophenyl)sulfonyl)-N-methyl-2,4,5,6-tetrahydrocyclopenta[c]pyrrol-4-amine]",0.62
14,"CNC1CCc2c1cn(S(=O)(=O)c1cccc(Cl)c1)c2-c1ccc2c(c1)OCO2 (stereo not shown) [Example 28, 1-(benzo[d][1,3]dioxol-5-yl)-2-((3-chlorophenyl)sulfonyl)-N-methyl-2,4,5,6-tetrahydrocyclopenta[c]pyrrol-4-amine]",0.59
15,"CNC1CCc2c1cn(S(=O)(=O)c1cccc(Cl)c1)c2-c1ccc2occc2c1 (stereo not shown) [Example 29, 1-(benzofuran-5-yl)-2-((3-chlorophenyl)sulfonyl)-N-methyl-2,4,5,6-tetrahydrocyclopenta[c]pyrrol-4-amine]",1.28
16,"CNC1CCc2c1cn(S(=O)(=O)c1cccc(Cl)c1)c2-c1cnn(C)c1 (stereo not shown) [Example 30, 2-((3-chlorophenyl)sulfonyl)-N-methyl-1-(1-methyl-1H-pyrazol-4-yl)-2,4,5,6-tetrahydrocyclopenta[c]pyrrol-4-amine]",1.04

# More lines, now with the values ahead:
row,IC50 [µM],Compound
1,10,"CNC1CCc2c1cn(S(=O)(=O)c1cccc(Cl)c1)c2C (stereo not shown) [Example 2, 2-((3-chlorophenyl)sulfonyl)-N,1-dimethyl-2,4,5,6-tetrahydrocyclopenta[c]pyrrol-4-amine]"
2,0.45,"CNC1CCc2c1cn(S(=O)(=O)c1cccc(Cl)c1)c2-c1ccccc1 (stereo not shown) [Example 3, 2-((3-chlorophenyl)sulfonyl)-N-methyl-1-phenyl-2,4,5,6-tetrahydrocyclopenta[c]pyrrol-4-amine]"
3,0.61,"CNC1CCc2c1cn(S(=O)(=O)c1cccc(Cl)c1)c2-c1ccccc1C (stereo not shown) [Example 4, 2-((3-chlorophenyl)sulfonyl)-N-methyl-1-(o-tolyl)-2,4,5,6-tetrahydrocyclopenta[c]pyrrol-4-amine]"
4,0.74,"CNC1CCc2c1cn(S(=O)(=O)c1cccc(Cl)c1)c2-c1ccccc1Cl (stereo not shown) [Example 5, 1-(2-chlorophenyl)-2-((3-chlorophenyl)sulfonyl)-N-methyl-2,4,5,6-tetrahydrocyclopenta[c]pyrrol-4-amine]"
5,1.32,"CNC1CCc2c1cn(S(=O)(=O)c1cccc(Cl)c1)c2-c1ccccc1C1CC=CC1 (stereo not shown) [Example 6, 2-((3-chlorophenyl)sulfonyl)-1-(2-(cyclopent-3-en-1-yl)phenyl)-N-methyl-2,4,5,6-tetrahydrocyclopenta[c]pyrrol-4-amine]"
6,0.75,"CNC1CCc2c1cn(S(=O)(=O)c1cccc(Cl)c1)c2-c1cccc(C)c1 (stereo not shown) [Example 8, 2-((3-chlorophenyl)sulfonyl)-N-methyl-1-(m-tolyl)-2,4,5,6-tetrahydrocyclopenta[c]pyrrol-4-amine]"
7,0.83,"CNC1CCc2c1cn(S(=O)(=O)c1cccc(Cl)c1)c2-c1cccc(F)c1 (stereo not shown) [Example 9, 2-((3-chlorophenyl)sulfonyl)-1-(3-fluorophenyl)-N-methyl-2,4,5,6-tetrahydrocyclopenta[c]pyrrol-4-amine]"
8,0.55,"CNC1CCc2c1cn(S(=O)(=O)c1cccc(Cl)c1)c2-c1ccc(F)cc1 (stereo not shown) [Example 11, 2-((3-chlorophenyl)sulfonyl)-1-(4-fluorophenyl)-N-methyl-2,4,5,6-tetrahydrocyclopenta[c]pyrrol-4-amine]"
9,0.47,"CNC1CCc2c1cn(S(=O)(=O)c1cccc(Cl)c1)c2-c1ccc(O)cc1 (stereo not shown) [Example 12, 4-(2-((3-chlorophenyl)sulfonyl)-4-(methylamino)-2,4,5,6-tetrahydrocyclopenta[c]pyrrol-1-yl)phenol]"
10,1.8,"CNC1CCc2c1cn(S(=O)(=O)c1cccc(Cl)c1)c2-c1ccc(C#N)cc1 (stereo not shown) [Example 13, 4-(2-((3-chlorophenyl)sulfonyl)-4-(methylamino)-2,4,5,6-tetrahydrocyclopenta[c]pyrrol-1-yl)benzonitrile]"
11,1.26,"CNC1CCc2c1cn(S(=O)(=O)c1cccc(Cl)c1)c2-c1ccc(OC)cc1 (stereo not shown) [Example 14, 2-((3-chlorophenyl)sulfonyl)-1-(4-methoxyphenyl)-N-methyl-2,4,5,6-tetrahydrocyclopenta[c]pyrrol-4-amine]"
12,0.48,"CNC1CCc2c1cn(S(=O)(=O)c1cccc(Cl)c1)c2-c1ccc(F)c(F)c1 (stereo not shown) [Example 24, 2-((3-chlorophenyl)sulfonyl)-1-(3,4-difluorophenyl)-N-methyl-2,4,5,6-tetrahydrocyclopenta[c]pyrrol-4-amine]"
13,7.01,"CNC1CCc2c1cn(S(=O)(=O)c1cccc(Cl)c1)c2Cc1ccccc1 (stereo not shown) [Example 27, 1-benzyl-2-((3-chlorophenyl)sulfonyl)-N-methyl-2,4,5,6-tetrahydrocyclopenta[c]pyrrol-4-amine]"
14,1.34,"CNC1CCc2c1cn(S(=O)(=O)c1cccc(Cl)c1)c2-c1ccoc1 (stereo not shown) [Example 31, 2-((3-chlorophenyl)sulfonyl)-1-(furan-3-yl)-N-methyl-2,4,5,6-tetrahydrocyclopenta[c]pyrrol-4-amine]"
15,0.45,"CNC1CCc2c1cn(S(=O)(=O)c1cccc(Cl)c1)c2-c1ccc(C)o1 (stereo not shown) [Example 32, 2-((3-chlorophenyl)sulfonyl)-N-methyl-1-(5-methylfuran-2-yl)-2,4,5,6-tetrahydrocyclopenta[c]pyrrol-4-amine]"
